Assay results as given in publication PMC10892836, “Hybrid Molecules of Azithromycin with Chloramphenicol and Metronidazole: Synthesis and Study of Antibacterial Properties” (Pharmaceuticals, 2024).
Converted amounts (≈) assume the structure as drawn.

Columns and labels:
[1] = tested on: Escherichia coli ATCC 25922; experiment: MIC, broth microdilution (CLSI); assay type: cell-based; details: ATCC25922, E. coli ATCC 25922
Experimental: (§1) Minimum inhibitory concentration (MIC) values for facultative anaerobic bacteria were determined using the broth microdilution method outlined in the CLSI guidelines. Initially, all compounds were dissolved in dimethyl sulfoxide (DMSO) to achieve a concentration of 10 mg/mL. Subsequently, they were diluted with the Mueller–Hinton nutrient broth (MHB) supplemented with 5% defibrinated horse blood (for Streptococcus spp.) to a concentration of 64 μg/mL. Following 2-fold serial dilutions of the substances, bacterial cultures in the log growth phase were added to 96-well plates at a concentration of 2.5–5 × 10^5 CFU/mL, and the plates were incubated at 37 °C for 16–20 h.
(§2) Minimum inhibitory concentration (MIC) was defined as the lowest concentration of a chemical compound that inhibits the visible growth of the bacterial strain. At least three replicates of MIC measurements were performed.

[2] = tested on: Staphylococcus aureus ATCC 29213; experiment: MIC, broth microdilution (CLSI); assay type: cell-based; details: ATCC29213, S. aureus ATCC 29213
Experimental: as §1, §2

[3] = tested on: Streptococcus pneumoniae ATCC 49619; experiment: MIC, broth microdilution (CLSI); assay type: cell-based; details: ATCC49619, S. pneumoniae ATCC 49619, Tables 2 and 3
Experimental: as §1, §2

E. coli ΔtolC pERMZα = experiment: MIC, broth microdilution, E. coli ΔtolC panel; assay type: cell-based; details: Escherichia coli
Experimental: (§3) The E. coli ΔtolC strain was also transformed with the pErmC, pErmCL-ErmC, and pERMZα plasmids. The resulting strains were grown at 37 °C in LB medium supplied with 100 μg/mL ampicillin.
(§4) MIC values for a panel of E. coli ΔtolC strains were determined via the broth microdilution assay as described here with minor modifications. Briefly, the overnight E. coli culture was diluted to an OD600 of 0.01 in the fresh LB medium supplied with 100 μg/mL ampicillin, if required. Then, the cells were additionally incubated for 1–1.5 h at 37 °C with shaking at 200 rpm (Shaker-Incubator ES-20/80, BioSan, Riga, Latvia). Meanwhile, 100 μL of the liquid growth medium was placed in each well of a 96-well sterile plate (200 μL was placed in column 1). Solutions of tested compounds were added in the first column of the plate at 2 times the final concentration of 200 μg/mL. Then, 2-fold serial dilutions were performed. Immediately before use, bacterial inoculum was diluted (1:100) in the growth medium, and 100 μL of it was transferred in each well except for the sterility control column. The plate was incubated overnight (16–20 h) at 37 °C with constant shaking at 200 rpm (Shaker-Incubator ES-20/80, BioSan, Riga Latvia). Cell growth was assessed by scanning the OD600 with a VICTOR X5 Multilabel Plate Reader (PerkinElmer, Waltham, MA, USA).
as §2

E. coli ΔtolC pErmC = experiment: MIC, broth microdilution, E. coli ΔtolC panel; assay type: cell-based; details: Escherichia coli
Experimental: as §3, §4, §2

[4] = tested on: E. coli ΔtolC pErmCL-ErmC; experiment: MIC, broth microdilution, E. coli ΔtolC panel; assay type: cell-based; details: for MIC: Escherichia coli
Experimental: In order to create the construct pErmCL-ErmC, the vector backbone was amplified using pZa-fwd (5′-TAAGAATTCTCTAGCCCG-3′) and pZa-rev (5′-[…]-3′) primers, and the pERMZα plasmid as a template. The ermC gene was amplified from the pERMCTP plasmid with ErmC-fwd (5′-[…]-3′) and ErmC-rev (5′-TAGGCGGGCTAGAGAATTC-3′) primers. The joining of two DNA fragments was performed using the NEBuilder® HiFi DNA Assembly Master Mix (New England Biolabs, Ipswich, MA, USA). Sequences of intermediate products and the final construct were confirmed by Sanger sequencing with appropriate primers.
as §3, §4, §2

E. coli ΔtolC = experiment: MIC, broth microdilution, E. coli ΔtolC panel; assay type: cell-based; details: Escherichia coli
Text: The E. coli JW5503 strain with a deletion of the tolC gene (referred to here as E. coli ΔtolC) was kindly provided by Prof. Hironori Niki, National Institute of Genetics, Japan. The E. coli BW25113 strain with a partial deletion of the lptD gene, codons 330 to 352 (referred to here as E. coli lptD^mut) was kindly provided by Prof. Alexander S. Mankin, University of Illinois, Chicago, IL, USA [44]. The E. coli ΔtolC strain was transformed with the pDualrep2 (Amp^R) plasmid, whereas the E. coli lptD^mut strain was transformed with the pDualrep2 (Kan^R) plasmid (not yet published). Both E. coli strains were grown at 37 °C in Luria–Bertani (LB) medium supplemented with either 100 μg/mL ampicillin or 50 μg/mL kanamycin.
as §4, §2

[5] = tested on: cell-free bacterial translation system based on the E. coli S30 lysate; experiment: In vitro translation in a cell-free bacterial system (firefly luciferase synthesis); assay type: biochemical; details: for Relative luciferase activity (relative maximal rate of Fluc accumulation): final concentration 5 μM, water control = 100%
Experimental: The inhibition of firefly luciferase (Fluc) synthesis by new azithromycin derivatives was assessed with the E. coli S30 Extract System for Linear Templates (Promega, Madison, WI, USA). Each reaction (5 μL total volume) was supplied with 0.1 mM mixture of all canonical amino acids, 4 U of RiboLock RNase Inhibitor (Thermo Fisher Scientific, Waltham, MA, USA), 0.1 mM of D-luciferin (Sigma-Aldrich, Burlington, MA, USA), 50 ng of firefly luciferase (Fluc) mRNA, and a chemical compound at a final concentration, as indicated in the main text, or nuclease-free water instead. Before the addition of mRNA, reaction tubes were pre-incubated at RT for 5 min and then placed back on ice. After the addition of mRNA, reaction mixtures were immediately subjected to continuous chemiluminescence measurement using the VICTOR X5 Multilabel Plate Reader (PerkinElmer, Waltham, MA, USA) at 37 °C for 30 min. Maximal rates of the firefly luciferase (Fluc) accumulation were calculated using the OriginPro 7.5 software. The values were normalized to a positive control (nuclease-free water, assigned a value of 100%). The results were visualized using the QtiPlot software (version 0.9.8.9).

[6] = tested on: ribosome stalling on ermCL mRNA; experiment: Toe-printing (primer extension inhibition) analysis on ermCL mRNA; assay type: biochemical; details: 50 μM (chloramphenicol 30 μM)
Experimental: The toe-printing (primer extension inhibition) analysis of azithromycin derivatives was carried out essentially as previously described with some minor modifications, as indicated below. The DNA template ErmCL was generated by PCR using two overlapping primers, ErmCL-fwd (5′-[…]-3′) and ErmCL-rev (5′-[…]-3′). Before the addition of the DNA template to reaction mixtures at the in vitro translation step, tubes were pre-incubated at RT for 5 min. Moreover, phenol-chloroform extraction of reverse transcription products was replaced with DNA purification using the QIAquick® PCR Purification Kit (Qiagen, Hilden, Germany) according to the manufacturer’s protocol.
Figure 4 Toe-printing (or primer extension inhibition) analysis of azithromycin derivatives on ermCL mRNA. Ribosome stalling is detected via reverse transcription in a cell-free bacterial transcription–translation coupled system. The toe-printing bands are marked with colored arrowheads, and the A-site codons (except for the start codon, P-site codon is indicated) occupied by the stalled ribosomes are indicated in the mRNA sequence with the corresponding colors. The stop codon is marked with an asterisk. All compounds but chloramphenicol (CLM) were tested at 50 μM. Chloramphenicol (CLM) was tested at 30 μM. DMSO was used as a negative control at 0.25% final concentration. Thiostrepton (THS) was used to indicate the translation start site.

[7] = tested on: Streptococcus agalactiae 1Cp; experiment: MIC, broth microdilution (CLSI); assay type: cell-based; details: S. agalactiae 1Cp, Table 3
Experimental: as §1, §2

[8] = tested on: Clostridium sporogenes ATCC 19404; experiment: MIC, agar dilution, anaerobic bacteria (CLSI M11-A9); assay type: cell-based; details: ATCC19404, C. sporogenes ATCC 19404, anaerobic
Experimental: The antimicrobial activity against anaerobic bacteria was evaluated using the agar dilution method in accordance with the CLSI document M11-A9 [58]. Twofold serial dilutions of compounds, at 10 times the desired concentration, were prepared in water and diluted (1:10) with the Brucella Agar medium containing 5% defibrinated horse blood, 5 mg/L hemin, and 1 mg/L vitamin K. The resulting plates were inoculated with approximately 10^5 CFU per spot using a replicator and incubated anaerobically at 36 °C for 48 h.
as §2

[9] = tested on: Propionibacterium acnes 55; experiment: as above; assay type: cell-based; details: Cutibacterium acnes; P. acnes 55, anaerobic clinical isolate

SMILES | MIC [1] | MIC [2] | MIC [3] | MIC (E. coli ΔtolC pERMZα) | MIC (E. coli ΔtolC pErmC) | Fold increase in the MIC value on E. coli ΔtolC pErmCL-ErmC compared to E. coli ΔtolC [4] | MIC [4] | MIC (E. coli ΔtolC) | Relative luciferase activity (relative maximal rate of Fluc accumulation) [5] | Ribosome stalling pattern on ermCL mRNA [6] | MIC [7] | MIC [8] | MIC [9] | Inhibition of protein synthesis in vitro ([5]; concentration of 50 μM (Figure 2B))
O=C(N[C@H](CO)[C@H](O)c1ccc([N+](=O)[O-])cc1)C(Cl)Cl [CLM, Chloramphenicol] | 8 µg/mL (≈ 24.8 µM) | 8 µg/mL (≈ 24.8 µM) | 4 µg/mL (≈ 12.4 µM) | 1.6 µg/mL (≈ 4.95 µM) | 1.6 µg/mL (≈ 4.95 µM) | no changes in the MIC values | 1.6 µg/mL (≈ 4.95 µM) | 1.6 µg/mL (≈ 4.95 µM) | 21% | strong ribosome stalling when the Ser codon (AGU) occupies the E-site of the ribosome |  |  |  | 
CC[C@H]1OC(=O)[C@H](C)[C@@H](O[C@H]2C[C@@](C)(OC)[C@@H](O)[C@H](C)O2)[C@H](C)[C@@H](O[C@@H]2O[C@H](C)C[C@H](N(C)C)[C@H]2O)[C@](C)(O)C[C@@H](C)C(=O)[C@H](C)[C@@H](O)[C@]1(C)O [ERY, erythromycin] |  |  |  | 1.6 µg/mL (≈ 2.18 µM) | > 200 µg/mL | 16 fold | 50 µg/mL (≈ 68.1 µM) | 3.1 µg/mL (≈ 4.22 µM) | 0.9% |  |  |  |  | 
Cc1ncc([N+](=O)[O-])n1CCO [MNZ, Metronidazole] |  | > 32 µg/mL | > 32 µg/mL | > 200 µg/mL | > 200 µg/mL |  | > 200 µg/mL | > 200 µg/mL |  |  | > 32 µg/mL | 8 µg/mL (≈ 46.7 µM) | > 32 µg/mL | no inhibition was observed
